In paper PMC12296705, “In Vivo and Bioinformatics Evaluation of Nine Traditional Chinese Medicine Compounds Targeting Acetylcholinesterase and Butyrylcholinesterase Enzymes in Alzheimer’s Disease” (Iranian Journal of Pharmaceutical Research : IJPR, 2025):
Where two headings read alike, the source gives them in different places.

Key:
[1] = target: T1, acetylcholinesterase (AChE) (Homo sapiens, UniProt P22303); assay: biochemical; settings: for IC50: mean ± SD, n = 3, each in triplicate
T1 construct: purchased bioassay systems, USA IACE-100
Description: (§1) The in vitro AChE and BuChE inhibitory effects and selectivity of nine TCM compounds were evaluated using the QuantiChrom^TM AChE inhibitor screening kit (IACE-100, bioassay systems, USA) for AChE inhibition and the BuChE activity kit (catalog # MBS846801, MyBiosource, CA, USA) for BuChE inhibition. […] The QuantiChrom^TM kit was used to assess the activity of AChE and BuChE by recording enzymatic activity at different concentrations of the test compounds and comparing it to activity without inhibitors, followed by plotting dose-response curves. The experimental data were fitted by nonlinear regression analysis to yield IC50 values. The selectivity of the compounds for AChE relative to BuChE was determined by calculating the Selectivity Index (SI) using the formula BuChE IC50 values are divided by AChE IC50 values to obtain SI.

[2] = target: T2, butyrylcholinesterase (BuChE) (Homo sapiens, UniProt P06276); assay: biochemical
T2 construct: purchased MyBiosource, CA, and USA MBS846801
Description: as §1

[3] = system: lead acetate-induced AD (LA-AD) rats; assay: Glutathione (GSH) content in brain tissue of LA-AD rats; type: in vivo, rat; settings: 1 mg/kg IP for 15 days, compared to the LA-AD group
Description: Fifty male Wistar rats (n = 50) were obtained from a certified animal facility, Shenzhen Bay Laboratory (SZBL) Laboratory Animal Platform, China. The rats were acclimatized to the laboratory environment for one week prior to the experiment. During this period, they were kept in standard polypropylene cages for rodents under controlled conditions, with a room temperature of 22°C, relative humidity of 50%, and a 12-hour light-dark cycle, with lights on from 06:00 to 18:00. […] Routine monitoring of housing conditions was conducted to ensure compliance with ethical standards. To establish an AD model, the rats underwent intraperitoneal (IP) administration with lead acetate-induced AD (LA-AD, 50 mg/kg) for 15 days to mimic the neurodegenerative features of AD.
A 12-hour fasting period was imposed on the rats immediately after the final dose of treatment to minimize the effect of recent food intake on blood parameters. […] Following 28 days of exposure, the rats were euthanized by cervical decapitation, and their brains were removed to minimize tissue damage. The brains were dissected into specific regions, including the cerebellum and cerebral cortex, for deeper analysis. […]
Glutathione (GSH) levels in cerebral tissue were quantified by extracting proteins from the homogenate. […]

[4] = system: lead acetate-induced AD (LA-AD) rats; assay: Lipid peroxidation (MDA) in brain tissue of LA-AD rats; type: in vivo, rat; settings: 1 mg/kg IP for 15 days, compared to the LA-AD group
Description: The rats were acclimatized to the laboratory environment for one week prior to the experiment. During this period, they were kept in standard polypropylene cages for rodents under controlled conditions, with a room temperature of 22°C, relative humidity of 50%, and a 12-hour light-dark cycle, with lights on from 06:00 to 18:00. […] Routine monitoring of housing conditions was conducted to ensure compliance with ethical standards. To establish an AD model, the rats underwent intraperitoneal (IP) administration with lead acetate-induced AD (LA-AD, 50 mg/kg) for 15 days to mimic the neurodegenerative features of AD.
Following 28 days of exposure, the rats were euthanized by cervical decapitation, and their brains were removed to minimize tissue damage. The brains were dissected into specific regions, including the cerebellum and cerebral cortex, for deeper analysis. The cerebellum, cerebral cortex, and hippocampus were isolated in sodium chloride solution and washed with ice-cold solution. The tissues were then homogenized, processed for biochemical analysis, and submerged in ice-cold 0.1 M phosphate buffer. […]
The reaction mixtures were then transferred into centrifuge tubes and centrifuged at 3800 × g for 25 minutes. […] After cooling, the absorbance of the samples was measured at 530 nm using a spectrophotometer (BIOBASE BK-UV1800PC, China).

[5] = target: T3, butyrylcholinesterase (BuChE) (Rattus norvegicus, UniProt Q9JKC1); assay: BuChE levels in LA-AD rats; type: in vivo; settings: 1 mg/kg IP for 15 days
T3 construct: The tissues were then homogenized, processed for biochemical analysis; from tissue; host or cells: brain of male Wistar rats (cerebellum, cerebral cortex, hippocampus homogenates)
Description: (§2) Fifty male Wistar rats (n = 50) were obtained from a certified animal facility, Shenzhen Bay Laboratory (SZBL) Laboratory Animal Platform, China. The rats were acclimatized to the laboratory environment for one week prior to the experiment. During this period, they were kept in standard polypropylene cages for rodents under controlled conditions, with a room temperature of 22°C, relative humidity of 50%, and a 12-hour light-dark cycle, with lights on from 06:00 to 18:00. The rats had ad libitum access to a standard rodent diet and filtered water to ensure optimal health and hydration. Routine monitoring of housing conditions was conducted to ensure compliance with ethical standards. To establish an AD model, the rats underwent intraperitoneal (IP) administration with lead acetate-induced AD (LA-AD, 50 mg/kg) for 15 days to mimic the neurodegenerative features of AD.
Following AD induction, the rats were randomly divided into five groups: (1) Group I (control): DMSO contained in drinking water at a 5% concentration, without neurotoxic effects, in normal rats; (2) group II (LA-AD): The LA-AD rats for 15 days; […]. […]
(§3) A 12-hour fasting period was imposed on the rats immediately after the final dose of treatment to minimize the effect of recent food intake on blood parameters. […] The toxicological effects of the treatment were assessed through analysis of blood lead concentrations. […]

[6] = target: T4, Acetylcholinesterase (AChE) (Rattus norvegicus, UniProt P37136); assay: AChE levels in LA-AD rats; type: in vivo; settings: 1 mg/kg IP for 15 days
T4 construct: The tissues were then homogenized, processed for biochemical analysis; from tissue; host or cells: brain of male Wistar rats (cerebellum, cerebral cortex, hippocampus homogenates)
Description: as §2
Following AD induction, the rats were randomly divided into five groups: (1) Group I (control): DMSO contained in drinking water at a 5% concentration, without neurotoxic effects, in normal rats; (2) group II (LA-AD): The LA-AD rats for 15 days; […]. […]. […]
as §3

[7] = mean ± SD, n = 3, each in triplicate, read-out: IC50 BuChE
[8] = BuChE IC50 divided by AChE IC50

T2 sequence (P06276 29-602): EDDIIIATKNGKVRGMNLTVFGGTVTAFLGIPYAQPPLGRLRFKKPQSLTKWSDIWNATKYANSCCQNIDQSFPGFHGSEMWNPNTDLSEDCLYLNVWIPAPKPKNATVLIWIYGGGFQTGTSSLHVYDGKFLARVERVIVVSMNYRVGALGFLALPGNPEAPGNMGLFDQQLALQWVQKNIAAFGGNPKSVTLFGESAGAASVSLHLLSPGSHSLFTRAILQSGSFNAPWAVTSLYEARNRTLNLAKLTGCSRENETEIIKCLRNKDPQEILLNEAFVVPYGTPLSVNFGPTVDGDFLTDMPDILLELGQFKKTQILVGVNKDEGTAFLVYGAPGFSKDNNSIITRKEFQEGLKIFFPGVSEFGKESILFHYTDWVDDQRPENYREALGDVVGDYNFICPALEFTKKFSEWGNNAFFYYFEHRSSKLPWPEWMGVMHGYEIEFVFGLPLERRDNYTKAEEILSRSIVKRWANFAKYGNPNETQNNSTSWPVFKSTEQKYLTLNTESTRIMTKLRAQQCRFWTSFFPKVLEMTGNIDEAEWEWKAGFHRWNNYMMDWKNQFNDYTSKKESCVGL
T1 sequence (P22303 32-614): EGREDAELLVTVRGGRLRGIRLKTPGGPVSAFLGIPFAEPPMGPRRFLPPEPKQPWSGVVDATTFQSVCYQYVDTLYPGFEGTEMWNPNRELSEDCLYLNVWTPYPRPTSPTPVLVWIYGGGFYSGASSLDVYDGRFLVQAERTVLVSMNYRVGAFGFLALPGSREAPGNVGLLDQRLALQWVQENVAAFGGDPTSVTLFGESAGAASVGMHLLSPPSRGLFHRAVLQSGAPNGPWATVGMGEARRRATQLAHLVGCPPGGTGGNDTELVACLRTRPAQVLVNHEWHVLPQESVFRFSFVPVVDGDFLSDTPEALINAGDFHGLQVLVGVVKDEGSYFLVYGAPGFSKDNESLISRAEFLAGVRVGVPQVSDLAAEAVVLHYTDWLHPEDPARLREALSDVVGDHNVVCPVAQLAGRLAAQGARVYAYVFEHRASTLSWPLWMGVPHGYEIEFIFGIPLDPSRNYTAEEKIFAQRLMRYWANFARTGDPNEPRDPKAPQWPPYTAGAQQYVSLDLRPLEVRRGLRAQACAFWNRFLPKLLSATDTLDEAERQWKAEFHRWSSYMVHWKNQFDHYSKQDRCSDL
T3 sequence (Q9JKC1 24-597): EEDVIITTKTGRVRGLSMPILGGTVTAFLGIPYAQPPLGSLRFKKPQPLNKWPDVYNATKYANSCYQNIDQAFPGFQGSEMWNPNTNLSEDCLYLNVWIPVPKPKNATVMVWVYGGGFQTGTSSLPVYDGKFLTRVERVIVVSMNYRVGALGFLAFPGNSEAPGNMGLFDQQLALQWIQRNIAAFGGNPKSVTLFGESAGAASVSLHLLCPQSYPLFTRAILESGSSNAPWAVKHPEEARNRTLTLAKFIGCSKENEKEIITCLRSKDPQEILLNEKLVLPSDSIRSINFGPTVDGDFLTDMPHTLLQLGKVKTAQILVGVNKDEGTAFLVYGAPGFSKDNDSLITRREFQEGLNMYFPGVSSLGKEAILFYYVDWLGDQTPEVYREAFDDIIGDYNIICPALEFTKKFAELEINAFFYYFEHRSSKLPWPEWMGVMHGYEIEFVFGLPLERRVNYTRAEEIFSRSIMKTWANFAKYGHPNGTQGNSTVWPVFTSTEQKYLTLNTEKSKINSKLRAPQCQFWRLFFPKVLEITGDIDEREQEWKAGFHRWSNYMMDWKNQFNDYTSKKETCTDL
T4 sequence (P37136 32-614): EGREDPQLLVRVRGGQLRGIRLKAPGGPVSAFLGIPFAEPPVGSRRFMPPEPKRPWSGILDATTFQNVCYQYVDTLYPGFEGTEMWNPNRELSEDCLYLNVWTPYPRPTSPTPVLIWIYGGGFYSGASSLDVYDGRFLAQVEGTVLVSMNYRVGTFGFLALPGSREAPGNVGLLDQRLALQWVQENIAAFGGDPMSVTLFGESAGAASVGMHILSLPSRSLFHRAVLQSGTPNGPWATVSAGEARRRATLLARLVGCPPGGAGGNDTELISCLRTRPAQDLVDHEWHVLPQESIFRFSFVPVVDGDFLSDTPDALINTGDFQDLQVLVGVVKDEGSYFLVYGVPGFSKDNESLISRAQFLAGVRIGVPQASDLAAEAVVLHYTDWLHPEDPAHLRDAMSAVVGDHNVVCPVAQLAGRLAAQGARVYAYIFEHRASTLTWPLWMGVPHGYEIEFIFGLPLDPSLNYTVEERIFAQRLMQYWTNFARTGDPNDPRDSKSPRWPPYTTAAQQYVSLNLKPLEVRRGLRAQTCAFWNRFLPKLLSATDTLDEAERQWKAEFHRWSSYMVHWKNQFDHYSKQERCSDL

## C=C1CCC[C@]2(C)C[C@]3(O)OC(=O)C(C)=C3C[C@@H]12 [Atractylenolide III]
[1]
  BuChE/AChE Selectivity: 0.38
  IC50: 83.1 ± 2.43 nM
[2]
  IC50: 31.3 ± 2.62 nM

## Cc1cc(=O)cc2c3c1CC1C4OC(=O)C(CC2)(C(C)C4O)C31 (stereo not shown) [Hainanolidol]
[3]
  Glutathione (GSH) levels: significantly increased
[4]
  Malondialdehyde (MDA) levels: significantly reduced
[5]
  BuChE activity: significantly decreased
[1]
  IC50: 44.3 nM
[2]; [7]
  IC50: 12.3 nM
[6]
  AChE activity: significantly decreased

## COC(=O)C1=CO[C@@H](O[C@@H]2O[C@H](CO)[C@@H](O)[C@H](O)[C@H]2O)[C@@H]2[C@H](C)O[C@@H](O)C[C@H]12 [Morroniside]
[1]
  IC50: 41.6 ± 2.02 nM
[2]; [7]
  IC50: 18.2 ± 2.12 nM

## COc1cc2c3c(c1O)-c1c(ccc(OC)c1OC)C[C@@H]3NCC2 [Norcorydine]
[1]
  IC50: 87.2 ± 4.12 nM
[2]
  IC50: 102 ± 3.13 nM

## O=c1cc(-c2ccccc2)oc2c(O)c(O)cc(O)c12 [Norwogonin]
[3]
  Glutathione (GSH) levels: significantly increased
[4]
  Malondialdehyde (MDA) levels: significantly reduced
[5]
  BuChE activity: significantly decreased
[1]
  IC50: 33.6 nM
[2]; [7]
  IC50: 15.2 nM
[6]
  AChE activity: significantly decreased

## Asiaticoside
[1]; [8]
  BuChE/AChE Selectivity: 1.17

## COc1cc2c(c(OC)c1OC)-c1c(cc3c(c1OC)OCO3)CC(C)C(C)C2 (stereo not shown) [Schisandrin B]
[1]
  IC50: 90.4 ± 4.41 nM
[2]
  IC50: 82.3 ± 1.21 nM

## CC1(C)C=Cc2c(cc3occ(-c4ccc(O)cc4)c(=O)c3c2O)O1 [Alpinumisoflavone]
[1]; [8]
  BuChE/AChE Selectivity: 0.32
[1]
  IC50: 90.3 ± 4.13 nM
[2]; [7]
  IC50: 29.2 ± 1.4 nM
